Read-outs that look alike come from different tables or passages of the source.
Tests used:
[1] = Qualitative solubility in solvents (compound data sheets, Supporting Information); type: physicochemical; conditions: solvents in which the compound dissolves
[2] = tested on: transferrin uptake (CME) in U2OS osteosarcoma cells; assay: Clathrin-mediated endocytosis assay: transferrin (Tfn) uptake in U2OS cells; type: cell-based; conditions: Homo sapiens, U2OS
Description: Using our previously reported CME assay in U2OS cells, the ability of these compounds to block endocytosis was examined (Table 5 ).^[ [48], [49] ^]
CME was examined by a high‐throughput, quantitative assay for measuring transferrin (Tfn) uptake in U2OS osteosarcoma cells, based on methods described previously.^[ [48] ^]
Compounds were made up fresh from powder stock just prior to commencing the assay, and stock solutions were stored at −20 °C for several months.

[3] = biological target: T1, clathrin heavy chain NTD (amino acids 1–364) – amphiphysin 1 B/C domain protein–protein interaction (NTD‐PPI) (Homo sapiens, UniProt Q00610); assay: ELISA-based clathrin inhibitor binding assay (NTD-PPI)
T1 construct: GST‐tagged clathrin heavy chain NTD (amino acids 1–364); made in house
T1 sequence (Q00610 1-364): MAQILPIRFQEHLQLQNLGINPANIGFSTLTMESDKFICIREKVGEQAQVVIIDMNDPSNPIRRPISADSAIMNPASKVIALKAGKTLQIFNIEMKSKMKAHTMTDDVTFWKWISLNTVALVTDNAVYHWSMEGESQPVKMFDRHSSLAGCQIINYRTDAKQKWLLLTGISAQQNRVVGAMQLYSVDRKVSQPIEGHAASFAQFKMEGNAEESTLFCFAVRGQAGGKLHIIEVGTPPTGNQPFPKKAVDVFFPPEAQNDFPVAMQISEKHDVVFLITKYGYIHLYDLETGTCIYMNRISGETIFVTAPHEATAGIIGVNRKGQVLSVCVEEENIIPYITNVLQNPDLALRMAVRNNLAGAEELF
How it was run: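 Binding is given relative to DMSO control, measured colorimetrically (HRP anti-GST, TMB) after compounds and GST-tagged clathrin heavy-chain NTD (1–364) were co-incubated 1 h at room temperature on immobilised His6-amphiphysin 1 B/C domain (250–578), in HEPES pH 7.4 buffer with 50 mM NaCl.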

[4] = biological target: T2, full length human Dynamin I (Homo sapiens, UniProt Q05193); assay: Dynamin GTPase activity, Malachite Green phosphate detection assay; type: biochemical
T2 construct: full length human Dynamin I expressed in Sf21 insect cells; made in house; host or cells: Sf21 insect cells
T2 sequence (Q05193 1-864): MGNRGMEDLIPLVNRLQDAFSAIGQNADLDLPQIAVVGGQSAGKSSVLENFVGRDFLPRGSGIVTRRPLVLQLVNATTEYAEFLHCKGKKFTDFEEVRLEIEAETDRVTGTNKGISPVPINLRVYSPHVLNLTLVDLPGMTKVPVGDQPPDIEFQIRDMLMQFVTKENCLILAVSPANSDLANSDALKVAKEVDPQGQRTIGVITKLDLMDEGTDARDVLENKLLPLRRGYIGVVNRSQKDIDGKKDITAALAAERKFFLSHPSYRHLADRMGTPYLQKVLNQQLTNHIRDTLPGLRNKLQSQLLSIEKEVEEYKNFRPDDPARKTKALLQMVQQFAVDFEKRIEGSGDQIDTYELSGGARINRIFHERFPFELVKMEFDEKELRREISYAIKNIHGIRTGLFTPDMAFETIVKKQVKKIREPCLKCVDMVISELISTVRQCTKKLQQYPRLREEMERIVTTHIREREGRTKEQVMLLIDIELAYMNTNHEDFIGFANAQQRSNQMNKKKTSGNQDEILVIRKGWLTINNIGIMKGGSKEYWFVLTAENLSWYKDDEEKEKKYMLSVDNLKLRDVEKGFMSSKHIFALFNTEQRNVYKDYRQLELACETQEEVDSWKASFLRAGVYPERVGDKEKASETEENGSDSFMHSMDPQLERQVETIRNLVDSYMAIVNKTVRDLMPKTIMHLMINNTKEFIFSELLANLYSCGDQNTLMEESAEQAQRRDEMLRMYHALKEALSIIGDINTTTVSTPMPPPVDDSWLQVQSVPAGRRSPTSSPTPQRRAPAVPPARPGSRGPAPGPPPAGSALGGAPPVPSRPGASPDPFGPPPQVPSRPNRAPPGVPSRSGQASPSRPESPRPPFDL
Description: Dynamin GTPase activity was determined in vitro using the Malachite Green phosphate detection absorbance‐based assay within a 96‐well plate format as described previously. The enzyme source was full length human Dynamin I expressed in Sf21 insect cells and affinity‐purified on GST‐Amph2‐SH3 (rat Amphiphysin 2 (494–588)).^[ [56] ^]

[5] = biological target: T1, clathrin heavy chain NTD (amino acids 1–364) – amphiphysin 1 B/C domain protein–protein interaction (NTD‐PPI); set-up: method as in PMID 21816279, PMID 27853797; conditions: Figure 1, lead Pitstop 2 and earlier analogs; read-out: IC50 (clathrin NTD‐PPI inhibition); cited from earlier work
[6] = Table 5, inhibition of transferrin‐red uptake in U2OS cells, '–'/NA = not active at 100 μM
[7] = Table 1, library 1, ELISA, average of duplicate measurements (n=2), read-out: NTD‐PPI IC50
[8] = Table 5, ELISA, read-out: NTD‐PPI IC50
[9] = Table 1, library 1, n = 1 unless noted (19: n = 2), '–' = not active at 150 μM, read-out: Dyn 1 IC50
[10] = Table 5, dynamin GTPase, n = 1 or n = 2 as footnoted, NA = not active at 100 μM, read-out: Dynamin 1 IC50
[11] = Table 4, library 4, ELISA, average of duplicate measurements (n = 2), read-out: NTD‐PPI IC50
[12] = Table 4, library 4, n = 1 or n = 2 as footnoted, '–' = not active at 100 μM, read-out: Dynamin 1 IC50

IC50 [2, 6] [µM] | IC50 [3, 7] [µM] | IC50 [3, 8] [µM] | IC50 ([3]; read-out: NTD‐PPI IC50 (ELISA)) [µM] | IC50 [4, 9] [µM] | IC50 [4, 10] [µM] | IC50 [3, 11] [µM] | SMILES | Solubility [1] | further results
46.7 ± 13.1 | 5.6 | 5.6 | 2.7 | > 150 | > 100 |  | O=C1N=C(NS(=O)(=O)c2cccc3ccccc23)S/C1=C\c1ccc(O)cc1 [compound 6, (Z)‐N‐(5‐(4‐hydroxybenzylidene)‐4‐oxo‐4,5‐dihydrothiazol‐2‐yl)naphthalene‐1‐sulfonamide] | DMSO, slightly soluble in ethanol, acetone, methanol and ethyl acetate | 
46.3 ± 13.7 | 153 | 153 |  | 42.2 | ~42.4 |  | O=C1N=C(NS(=O)(=O)c2cccc3ccccc23)S/C1=C\c1ccccc1[N+](=O)[O-] [compound 15, (Z)‐N‐(5‐(2‐nitrobenzylidene)‐4‐oxo‐4,5‐dihydrothiazol‐2‐yl)naphthalene‐1‐sulfonamide] | DMSO, slightly soluble in ethyl acetate, acetone, ethanol and methanol | fold potency reduction (NTD‐PPI) ([3]; ELISA, comparator not named (lead Pitstop 2 series)): > 100 fold
25 ± 14.6 |  |  |  | > 150 | > 100 |  | O=C1N=C(NS(=O)(=O)c2cccc3ccccc23)S/C1=C\c1cccc(O)c1 [compound 7, N‐[(5Z)‐5‐(3‐hydroxybenzylidene)‐4‐oxo‐4,5‐dihydro‐1,3‐thiazol‐2‐yl]naphthalene‐1‐sulfonamide] | DMSO, slightly soluble in acetone, ethyl acetate, methanol and ethanol | 
 |  |  |  |  |  |  | O=C1N=C(NS(=O)(=O)c2cccc3ccccc23)S/C1=C\c1cccc(O)c1O [compound 3] |  | IC50 [5]: 3.5 µM
> 100 |  | 3.33 | < 5 |  | ~54.1 | 3.33 | O=C1COc2ccc(/C=C3\SC(NS(=O)(=O)c4cccc5ccccc45)=NC3=O)cc2N1 [compound 52, (Z)‐N‐(4‐oxo‐5‐((3‐oxo‐3,4‐dihydro‐2H‐benzo[b][1,4]oxazin‐6‐yl)methylene)‐4,5‐dihydrothiazol‐2‐yl)naphthalene‐1‐sulfonamide] | DM SO, slig htly soluble in acetone, ethanol an d m ethanol | IC50 ([2]; U2OS cells): > 50 µM; IC50 [4, 12]: ~54.1 µM
58.1 ± 12.6 |  |  | < 5 |  | > 100 | 3.27 | O=C1N=C(NS(=O)(=O)c2cccc3ccccc23)S/C1=C\c1ccc2c(c1)CCO2 [compound 57, (Z)‐N‐(5‐((2,3‐dihydrobenzofuran‐5‐yl)methylene)‐4‐oxo‐4,5‐dihydrothiazol‐2‐yl)naphthalene‐1‐sulfonamide] | DM SO, slig htly soluble in ethyl acetate, aceton e, ethanol and methanol | IC50 ([2]; U2OS cells): > 50 µM; IC50 [4, 12]: > 100 µM
~96.6 |  | 3.64 | 3.6 |  |  | 3.64 | O=C1N=C(NS(=O)(=O)c2cccc3ccccc23)S/C1=C\c1ccco1 [compound 48, (Z)‐N‐(5‐(furan‐2‐ylmethylene)‐4‐oxo‐4,5‐dihydrothiazol‐2‐yl)naphthalene‐1‐sulfonamide] | DM SO, slig htly soluble in methanol | IC50 ([2]; U2OS cells): > 50 µM
27.2 ± 11.7 |  | 5.3 |  |  |  | 5.3 | O=C1N=C(NS(=O)(=O)c2cccc3ccccc23)S/C1=C\c1ccc[nH]1 [compound 47, (Z)‐N‐(5‐((1H‐pyrrol‐2‐yl)methylene)‐4‐oxo‐4,5‐dihydrothiazol‐2‐yl)naphthalene‐1‐sulfonamide] | DM SO slightly soluble in acetone an d methanol | fold less active (NTD‐PPI) than furan (48) ([3]; ELISA, C2 linked analogues): 2 fold
 | 7.4 |  |  | > 150 |  |  | O=C1N=C(NS(=O)(=O)c2cccc3ccccc23)S/C1=C\c1ccc(C(=O)O)cc1 [compound 9, 4‐[(Z)‐{2‐[(naphthalen‐1‐ylsulfonyl)amino]‐4‐oxo‐1,3‐thiazol‐5(4H)‐ylidene}methyl]benzoic acid] | DMSO, slightly soluble in acetone, ethyl acetate, ethanol and methanol | 
 |  |  |  |  |  |  | O=C1N=C(NS(=O)(=O)c2cccc(Cl)c2)S/C1=C\c1ccc(Br)cc1 [compound 2] |  | IC50 [5]: 5.1 µM
 |  |  |  |  |  |  | O=C1N=C(NS(=O)(=O)c2cccc3ccccc23)S/C1=C\c1ccc(Br)cc1 [Pitstop 2, (Z)‐N‐(5‐(4‐bromenzylidene)‐4‐oxo‐4,5‐dihydrothiazol‐2‐yl)naphthalene‐1‐sulfonamide] |  | IC50 [5]: 1.9 µM
 | 5.3 |  |  | > 150 |  |  | O=C1N=C(NS(=O)(=O)c2cccc3ccccc23)S/C1=C\c1cccc(C(=O)O)c1 [compound 10, (Z)‐3‐((2‐(naphthalene‐1‐sulfonamido)‐4‐oxothiazol‐5(4 H)‐ylidene)methyl)benzoic acid] | DMSO | 
34.4 ± 13.7 |  |  |  | > 150 | > 100 |  | O=C1N=C(NS(=O)(=O)c2cccc3ccccc23)S/C1=C\c1cccc([N+](=O)[O-])c1 [compound 14, (Z)‐N‐(5‐(3‐nitrobenzylidene)‐4‐oxo‐4,5‐dihydrothiazol‐2‐yl)naphthalene‐1‐sulfonamide] | DMSO, slightly soluble in acetone, ethanol and methanol | 

Source: article PMC12368479, “Inhibition of the Clathrin Terminal Domain—Amphiphysin Protein–Protein Interaction. Probing the Pitstop 2 Aromatic Moiety” (Chemmedchem, 2025)
